Measurements reported in paper PMC11508633, “In Silico Discovery of a Novel PI3Kδ Inhibitor Incorporating 3,5,7-Trihydroxychroman-4-one Targeting Diffuse Large B-Cell Lymphoma” (International Journal of Molecular Sciences, 2024).

Molecular target: T1, PI3Kδ (Homo sapiens, UniProt O00329)
T1 construct: gene PIK3CD; PI3Kδ (p120δ/p85α); with p85α
Test: ADP-Glo kinase assay (PIP2:PS substrate, […] ATP)
Type: biochemical

T1 sequence (O00329 whole entry): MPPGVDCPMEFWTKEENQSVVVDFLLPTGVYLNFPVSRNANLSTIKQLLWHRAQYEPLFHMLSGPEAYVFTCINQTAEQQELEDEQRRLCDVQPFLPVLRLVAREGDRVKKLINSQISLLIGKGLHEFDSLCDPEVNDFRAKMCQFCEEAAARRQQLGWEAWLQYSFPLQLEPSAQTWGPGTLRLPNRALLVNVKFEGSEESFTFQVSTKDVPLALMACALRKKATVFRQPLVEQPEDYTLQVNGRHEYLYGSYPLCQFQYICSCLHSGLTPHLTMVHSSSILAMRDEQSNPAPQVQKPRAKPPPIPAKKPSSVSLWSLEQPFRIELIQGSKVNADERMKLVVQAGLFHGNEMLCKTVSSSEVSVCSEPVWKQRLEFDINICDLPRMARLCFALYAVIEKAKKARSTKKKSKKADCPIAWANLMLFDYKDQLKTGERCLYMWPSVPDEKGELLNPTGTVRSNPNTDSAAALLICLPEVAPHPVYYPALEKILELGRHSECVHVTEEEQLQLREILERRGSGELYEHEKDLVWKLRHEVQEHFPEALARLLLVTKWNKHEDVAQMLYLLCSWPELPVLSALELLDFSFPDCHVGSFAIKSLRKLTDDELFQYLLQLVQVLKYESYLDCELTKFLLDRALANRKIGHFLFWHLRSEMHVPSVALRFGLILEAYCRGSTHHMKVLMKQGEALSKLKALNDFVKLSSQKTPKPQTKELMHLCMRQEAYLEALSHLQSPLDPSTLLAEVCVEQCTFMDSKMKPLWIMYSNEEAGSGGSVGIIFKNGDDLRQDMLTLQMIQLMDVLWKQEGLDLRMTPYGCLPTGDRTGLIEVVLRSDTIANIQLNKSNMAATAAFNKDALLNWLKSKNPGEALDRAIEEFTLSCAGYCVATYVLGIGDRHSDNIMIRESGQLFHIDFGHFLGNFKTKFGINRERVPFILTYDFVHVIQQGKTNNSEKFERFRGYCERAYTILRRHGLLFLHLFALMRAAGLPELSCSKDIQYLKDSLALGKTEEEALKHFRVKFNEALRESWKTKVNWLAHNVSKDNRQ
T1 sequence (P27986 2-724 partner): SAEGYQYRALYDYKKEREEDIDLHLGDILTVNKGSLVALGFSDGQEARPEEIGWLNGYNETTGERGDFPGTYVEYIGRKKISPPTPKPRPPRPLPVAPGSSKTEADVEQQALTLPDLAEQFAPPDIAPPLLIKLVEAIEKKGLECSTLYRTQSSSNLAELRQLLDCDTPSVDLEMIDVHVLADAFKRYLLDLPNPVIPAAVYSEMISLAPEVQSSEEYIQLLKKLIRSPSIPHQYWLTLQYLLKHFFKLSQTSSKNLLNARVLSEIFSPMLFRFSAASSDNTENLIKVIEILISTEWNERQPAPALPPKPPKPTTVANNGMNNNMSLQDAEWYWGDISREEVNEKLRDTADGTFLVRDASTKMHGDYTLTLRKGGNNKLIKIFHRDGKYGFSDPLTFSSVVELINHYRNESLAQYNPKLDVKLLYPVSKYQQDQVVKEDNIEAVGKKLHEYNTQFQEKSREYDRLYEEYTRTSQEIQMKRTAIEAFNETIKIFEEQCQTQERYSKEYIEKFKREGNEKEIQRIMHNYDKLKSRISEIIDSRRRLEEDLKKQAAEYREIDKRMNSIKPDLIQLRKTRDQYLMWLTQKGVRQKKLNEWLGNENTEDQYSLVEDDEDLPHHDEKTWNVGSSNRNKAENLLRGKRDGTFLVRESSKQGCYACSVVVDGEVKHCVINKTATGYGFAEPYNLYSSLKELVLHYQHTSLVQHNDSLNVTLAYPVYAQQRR

COc1cc(C2Oc3cc([C@H]4Oc5cc(O)cc(O)c5C(=O)[C@@H]4O)ccc3OC2CO)ccc1O (stereo partly shown) [Silibinin]
IC50: 288 µM
